Data taken from patent US11071769B2, “Lipo-glycopeptide cleavable derivatives and uses thereof” (Insmed Incorporated, priority 2017, dated 2021).
Values after ≈ are worked out from the molar mass of the structure shown.

How the values were obtained:
[1] = test system: MRSA isolate ATCC BAA-1556; assay: MIC, CLSI-guided broth susceptibility testing, MRSA 1556; format: cell-based, Staphylococcus aureus; settings: for MIC Values, MRSA 1556: MRSA isolate ATCC BAA-1556; for MIC: Staphylococcus aureus, read-out: MIC Values, MRSA 1556
Experimental: (§1) Compounds of the invention were evaluated for their ability to inhibit bacterial growth in two MRS A strains—MRS A 1556 and MRS A 29213. Table 2 provides MIC concentrations for metabolites of the ester and amide compounds, RV80 (metabolite of RV65 ester) and RV82 (metabolite of RV62 amide). MIC values for vancomycin and telavancin are also provided.
(§2) MIC Testing: Glycopeptide compounds were dissolved in 100% DMSO. In vitro activities were determined using CLSI-guided broth susceptibility testing to measure drug minimum inhibitory concentrations (MICs) of the compounds against the quality control strain ATCC 29213 (MSSA) and the MRS A isolate ATCC BAA-1556.

[2] = test system: quality control strain ATCC 29213 (MSSA); assay: MIC, CLSI-guided broth susceptibility testing, MSSA 29213; format: cell-based, Staphylococcus aureus; settings: for MIC Values, MSSA 29213: ATCC 29213 (MSSA); for MIC: Staphylococcus aureus, read-out: MIC Values, MSSA 29213
Experimental: as §1, §2

[3] = Metabolism (hydrolysis) in rat plasma; format: in vitro ADME; settings: 37° C.; for degradant detected in plasma: 50 μg/mL
Experimental: RV62 and RV65 were dissolved in 100% DMSO. Stock solutions were diluted using rat plasma to contain less than 1% organic solvent with a final drug concentration of 50 μg/mL. Samples were briefly vortexed and then incubated in a shaker set to 37° C. and 300 rpm. Aliquots were removed at specified time points and store at −80° C. until extraction and analysis. Samples were extracted using a solution of 10% TCA and analyzed using LCMS.

[4] = Degradation (hydrolysis) in Tris buffer by HPLC; format: physicochemical; settings: 1 mM Tris buffer pH 6.99, 40° C., 72 h
Experimental: RV62 and RV65 degradation was determined according to the following procedures.
Compounds were dissolved and diluted with 1 mM Tris buffer (pH 6.99) to achieve a concentration of 54 μg/mL (stock solution). 0.5 mL of stock solution was further diluted with acetonitrile to a total volume of 10 mL. The stock solution was incubated at 40° C., with samples withdrawn at 3, 6, 24, and 72 h and tested by HPLC.
HPLC method: Samples were injected onto a 100×2.1 mm Waters Cortecs HILIC with a particle size of 1.6 μm. The mobile phase consisted of water (0.1% formic acid) and acetonitrile (0.1% formic acid). The analytic method utilized a gradient from 10% water (0.1% formic acid)/90% acetonitrile (0.1% formic acid) to 70% water (0.1% formic acid)/30% acetonitrile (0.1% formic acid). The HPLC instrument was equipped with a UV detector (280 nm). Compounds were identified by mass.

SMILES | MIC Values, MRSA 1556 [1] | MIC Values, MSSA 29213 [2] | further results
CCCCCCCCCC(=O)OCCNC1(C)CC(OC2C(Oc3c4cc5cc3Oc3ccc(cc3Cl)C(O)C3NC(=O)C(NC(=O)C5NC(=O)C(CC(N)=O)NC(=O)C(NC(=O)C(CC(C)C)NC)C(O)c5ccc(c(Cl)c5)O4)c4ccc(O)c(c4)-c4c(O)cc(O)cc4C(C(=O)O)NC3=O)OC(CO)C(O)C2O)OC(C)C1O (centres unmarked) [RV54] | 0.167 µg/mL (≈ 0.101 µM) | 0.146 µg/mL (≈ 0.0886 µM) | 
CCCCCCCCCC(=O)NCCNC1(C)CC(OC2C(Oc3c4cc5cc3Oc3ccc(cc3Cl)C(O)C3NC(=O)C(NC(=O)C5NC(=O)C(CC(N)=O)NC(=O)C(NC(=O)C(CC(C)C)NC)C(O)c5ccc(c(Cl)c5)O4)c4ccc(O)c(c4)-c4c(O)cc(O)cc4C(C(=O)O)NC3=O)OC(CO)C(O)C2O)OC(C)C1O (centres unmarked) [RV56] | 0.063 µg/mL (≈ 0.0383 µM) | 0.063 µg/mL (≈ 0.0383 µM) | 
CCCCCCCCCCCC(=O)NCCNC1(C)CC(OC2C(Oc3c4cc5cc3Oc3ccc(cc3Cl)C(O)C3NC(=O)C(NC(=O)C5NC(=O)C(CC(N)=O)NC(=O)C(NC(=O)C(CC(C)C)NC)C(O)c5ccc(c(Cl)c5)O4)c4ccc(O)c(c4)-c4c(O)cc(O)cc4C(C(=O)O)NC3=O)OC(CO)C(O)C2O)OC(C)C1O (centres unmarked) [RV62] | 0.023 µg/mL (≈ 0.0137 µM) | 0.023 µg/mL (≈ 0.0137 µM) | fold more efficacious than RV65 (MIC) ([1]; compared with RV65, the ester with the lowest measured MIC, Table 1, both strains): about 3 ×; degradant detected in plasma ([3]; 24 h incubation): 6%
CCCCCCCCCCCC(=O)OCCNC1(C)CC(OC2C(Oc3c4cc5cc3Oc3ccc(cc3Cl)C(O)C3NC(=O)C(NC(=O)C5NC(=O)C(CC(N)=O)NC(=O)C(NC(=O)C(CC(C)C)NC)C(O)c5ccc(c(Cl)c5)O4)c4ccc(O)c(c4)-c4c(O)cc(O)cc4C(C(=O)O)NC3=O)OC(CO)C(O)C2O)OC(C)C1O (centres unmarked) [RV65] | 0.094 µg/mL (≈ 0.0561 µM) | 0.063 µg/mL (≈ 0.0376 µM) | peak area for the cleaved glycopeptide, of the total [4]: about 42%; degradant detected in plasma ([3]; 6 h incubation): ~90%; metabolism in plasma compared to RV62 ([3]; over 24 h): metabolized faster
CNC(CC(C)C)C(=O)NC1C(=O)NC(CC(N)=O)C(=O)NC2C(=O)NC3C(=O)NC(C(=O)NC(C(=O)O)c4cc(O)cc(O)c4-c4cc3ccc4O)C(O)c3ccc(c(Cl)c3)Oc3cc2cc(c3OC2OC(CO)C(O)C(O)C2OC2CC(C)(NCCO)C(O)C(C)O2)Oc2ccc(cc2Cl)C1O (centres unmarked) [RV80] | 1 µg/mL (≈ 0.67 µM) | 1 µg/mL (≈ 0.67 µM) | 
CN[C@H](CC(C)C)C(=O)N[C@H]1C(=O)N[C@@H](CC(N)=O)C(=O)N[C@H]2C(=O)N[C@H]3C(=O)N[C@H](C(=O)N[C@@H](C(=O)O)c4cc(O)cc(O)c4-c4cc3ccc4O)[C@H](O)c3ccc(c(Cl)c3)Oc3cc2cc(c3O[C@@H]2O[C@H](CO)[C@@H](O)[C@H](O)[C@H]2O[C@H]2C[C@](C)(NCCN)[C@H](O)[C@H](C)O2)Oc2ccc(cc2Cl)[C@H]1O [RV82] |  |  | MIC [1]: 3 µg/mL (≈ 2.01 µM); MIC [2]: 3 µg/mL (≈ 2.01 µM)
CCCCCCCCCCCCCCCC(=O)OCCNC1(C)CC(OC2C(Oc3c4cc5cc3Oc3ccc(cc3Cl)C(O)C3NC(=O)C(NC(=O)C5NC(=O)C(CC(N)=O)NC(=O)C(NC(=O)C(CC(C)C)NC)C(O)c5ccc(c(Cl)c5)O4)c4ccc(O)c(c4)-c4c(O)cc(O)cc4C(C(=O)O)NC3=O)OC(CO)C(O)C2O)OC(C)C1O (centres unmarked) [RV89] | 1.000 µg/mL (≈ 0.577 µM) | 0.500 µg/mL (≈ 0.289 µM) | 
CCCCCCCC(=O)OCCNC1(C)CC(OC2C(Oc3c4cc5cc3Oc3ccc(cc3Cl)C(O)C3NC(=O)C(NC(=O)C5NC(=O)C(CC(N)=O)NC(=O)C(NC(=O)C(CC(C)C)NC)C(O)c5ccc(c(Cl)c5)O4)c4ccc(O)c(c4)-c4c(O)cc(O)cc4C(C(=O)O)NC3=O)OC(CO)C(O)C2O)OC(C)C1O (centres unmarked) [RV90] | 0.250 µg/mL (≈ 0.154 µM) | 0.250 µg/mL (≈ 0.154 µM) | 
CCCCCCCCCCCCCCCC(=O)NCCNC1(C)CC(OC2C(Oc3c4cc5cc3Oc3ccc(cc3Cl)C(O)C3NC(=O)C(NC(=O)C5NC(=O)C(CC(N)=O)NC(=O)C(NC(=O)C(CC(C)C)NC)C(O)c5ccc(c(Cl)c5)O4)c4ccc(O)c(c4)-c4c(O)cc(O)cc4C(C(=O)O)NC3=O)OC(CO)C(O)C2O)OC(C)C1O (centres unmarked) [RV91] | 0.250 µg/mL (≈ 0.144 µM) | 0.188 µg/mL (≈ 0.109 µM) | 
CCCCCCCC(=O)NCCNC1(C)CC(OC2C(Oc3c4cc5cc3Oc3ccc(cc3Cl)C(O)C3NC(=O)C(NC(=O)C5NC(=O)C(CC(N)=O)NC(=O)C(NC(=O)C(CC(C)C)NC)C(O)c5ccc(c(Cl)c5)O4)c4ccc(O)c(c4)-c4c(O)cc(O)cc4C(C(=O)O)NC3=O)OC(CO)C(O)C2O)OC(C)C1O (centres unmarked) [RV93] | 0.125 µg/mL (≈ 0.0772 µM) | 0.125 µg/mL (≈ 0.0772 µM) | 
CCCCCCCCCCCCNC(=O)CNC1(C)CC(OC2C(Oc3c4cc5cc3Oc3ccc(cc3Cl)C(O)C3NC(=O)C(NC(=O)C5NC(=O)C(CC(N)=O)NC(=O)C(NC(=O)C(CC(C)C)NC)C(O)c5ccc(c(Cl)c5)O4)c4ccc(O)c(c4)-c4c(O)cc(O)cc4C(C(=O)O)NC3=O)OC(CO)C(O)C2O)OC(C)C1O (centres unmarked) [RV95] | 0.031 µg/mL (≈ 0.0185 µM) | 0.031 µg/mL (≈ 0.0185 µM) | 
CCCCCCCCCCNCCN[C@@]1(C)C[C@H](O[C@H]2[C@H](Oc3c4cc5cc3Oc3ccc(cc3Cl)[C@@H](O)[C@@H](NC(=O)[C@@H](CC(C)C)NC)C(=O)N[C@@H](CC(N)=O)C(=O)N[C@H]5C(=O)N[C@H]3C(=O)N[C@H](C(=O)N[C@H](C(=O)O)c5cc(O)c(CNCP(=O)(O)O)c(O)c5-c5cc3ccc5O)[C@H](O)c3ccc(c(Cl)c3)O4)O[C@H](CO)[C@@H](O)[C@@H]2O)O[C@@H](C)[C@H]1O [Telavancin, telavancin, reference compound] |  |  | MIC [1]: 0.063 µg/mL (≈ 0.0359 µM); MIC [2]: 0.063 µg/mL (≈ 0.0359 µM)
